“Also recorded” adds a separate entry of the source. No end group written: not given here.
Legend:
AtUFM1 = target: T1, AtUFM1 (Arabidopsis thaliana, UniProt Q9CA23); test: Fluorescence anisotropy binding of TAMRA-labeled AtC53 IDR-derived peptides to AtUFM1
T1 construct: made in house; host or cells: E. coli Rosetta2 (DE3) pLysS
Experimental: (§1) For fluorescence anisotropy measurements, all peptides were in‐house synthetized and HPLC purified attached to 5(6)‐Carboxytetramethylrhodamine (TAMRA) to its N‐terminal. Binding affinities of ATG8A or AtUFM1 to TAMRA‐labeled peptides were measured by the change in fluorescence anisotropy in an FS5 Spectrofluorometer (Edinburgh Instruments) with excitation at 550 nm (slit width 5 nm) and emission at 580 nm (slit width 5 nm). […] Binding curves were fitted using Prism Software (GraphPad).

ATG8A = target: T2, ATG8A (Arabidopsis thaliana, UniProt Q8LEM4); test: Fluorescence anisotropy binding of TAMRA-labeled AtC53 IDR-derived peptides to ATG8A
T2 construct: made in house; host or cells: E. coli Rosetta2 (DE3) pLysS
Experimental: as §1

HsUFM1 = test: Native mass spectrometry (nMS) complex formation with HsUFM1; type: binding, Homo sapiens; conditions: HsUFM1 5 μM, peptide 25 μM
Experimental: Proteins were buffer exchanged into ammonium acetate using BioRad Micro Bio‐Spin 6 Columns. Native mass spectrometry experiments were carried out on a Synapt G2Si instrument (Waters, Manchester, UK) with a nanoelectrospray ionization source (nESI). Mass calibration was performed by a separate infusion of NaI cluster ions. Solutions were ionized from a thin‐walled borosilicate glass capillary (i.d. 0.78 mm, o.d. 1.0 mm, Sutter Instrument Co., Novato, CA, USA) pulled in‐house to nESI tip with a Flaming/Brown micropipette puller (Sutter Instrument Co., Novato, CA, USA). A potential of 0.8 kV was applied to the solution via a thin platinum wire (diameter 0.125 mm, Goodfellow, Huntingdon, UK). The following instrument parameters were used: capillary voltage 0.8 kV, sample cone voltage 40 V, source offset 60 V, source temperature 40°C, trap collision energy 4.0 V, and trap gas 3 ml/min. Data were processed using Masslynx V4.2 and OriginPro 2021.

[1] = tested on: GST-HsUFM1 / mCh-HsC53 interaction; test: On-bead competition of the HsUFM1-HsC53 interaction; type: binding, Homo sapiens; conditions: 1 μM HsC53; cAIM peptide 0-100 μM; UBA5 LIR peptide or GABARAP 100 μM
Experimental: (§2) Glutathione‐Sepharose 4B bead slurry (Cytiva, average diameter 90 μm) was washed and diluted 10 times in HEPES buffer (25 mM HEPES pH 7.5, 150 mM NaCl, 1 mM DTT). The beads were then incubated for 30 min at 4°C (16 rpm horizontal rotation) with GST‐tagged bait proteins (2 μM of GST, GST‐FIP200 CD, GST‐ATG8A, GST‐GABARAP, GST‐AtUFM1, and GST‐HsUFM1). The beads were washed five times in 10 times the bead volume of HEPES buffer. The buffer was removed, and the beads were resuspended 1:20 in HEPES buffer. 10 μl of diluted beads was mixed with 20 μl of mCherry‐tagged binding partner at a concentration of 1.5 μM (0.5 μl bead slurry and 1 μM binding partner final concentrations) with or without competitor, as stated in the relative experiment. […]
(§3) From images acquired from a Zeiss LSM700 confocal microscope, the quantification of fluorescence was performed in ImageJ (Schindelin et al, [2012]) by drawing a line across each bead and taking the maximum gray value along the line. The maximum gray value for any given pixel represents the fluorescence intensity.
(§4) For images acquired from a Zeiss LSM800 confocal microscope, we used a custom Fiji Macro. […] In the end, the mean fluorescent intensities were exported out and used for quantification.
(§5) For each method, the fluorescence intensity was normalized against the mean of the control condition.

[2] = tested on: GST-GABARAP / mCh-HsC53 interaction; test: On-bead competition of the GABARAP-HsC53 interaction; type: binding, human; conditions: 1 μM HsC53; cAIM peptide 0-100 μM; 4 replicates
Experimental: as §2, §3, §4, §5

[3] = tested on: GST-ATG8A / mCh-AtC53 interaction; test: On-bead competition of the ATG8A-AtC53 interaction; type: binding, Arabidopsis thaliana; conditions: 1 μM AtC53; cAIM peptide 0-100 μM; 2 independent replicates containing 2 technical replicates
Experimental: as §2, §3, §4, §5

[4] = tested on: GST-AtUFM1 / mCh-AtC53 interaction; test: On-bead competition of the AtUFM1-AtC53 interaction; type: binding, Arabidopsis thaliana; conditions: 1 μM AtC53; cAIM peptide 0-100 μM; 2 independent replicates containing 2 technical replicates
Experimental: as §2, §3, §4, §5

[5] = tested on: GST-GABARAP / MBP-C53 interaction; test: In vitro GST pulldown competition of the GABARAP-C53 interaction; type: binding, human; conditions: cAIM peptide 200 μM; immunoblot read-out
Experimental: (§6) For pulldown experiments, 5 μl of glutathione magnetic agarose beads (Pierce Glutathione Magnetic Agarose Beads, Thermo Scientific) was equilibrated by washing them two times with wash buffer (100 mM Sodium Phosphate pH 7.2, 300 mM NaCl, 1 mM DTT, 0.01% (v/v) IGEPAL). Normalized E. coli clarified lysates or purified proteins were mixed, according to the experiment, added to the washed beads, and incubated on an end‐over‐end rotator for 1 h at 4°C. Beads were washed five times with 1 ml wash buffer. Bound proteins were eluted by adding 50 μl Laemmli buffer. Samples were analyzed by western blotting or Coomassie staining.

[6] = tested on: GST-HsUFM1 / MBP-HsC53 interaction; test: In vitro GST pulldown competition of the HsUFM1-HsC53 interaction; type: binding, Homo sapiens; conditions: cAIM peptide 200 μM; immunoblot read-out
Experimental: as §6

T2 sequence (Q8LEM4 whole entry): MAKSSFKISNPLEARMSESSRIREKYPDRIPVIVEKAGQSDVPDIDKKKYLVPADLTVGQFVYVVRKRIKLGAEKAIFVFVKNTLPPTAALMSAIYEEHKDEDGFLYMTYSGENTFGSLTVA
T1 sequence (Q9CA23 whole entry): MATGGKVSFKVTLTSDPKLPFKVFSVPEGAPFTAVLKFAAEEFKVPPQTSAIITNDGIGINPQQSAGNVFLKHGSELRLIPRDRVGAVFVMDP

Sequence: AADSIDADITVET [sAIM mut, sAIM mutant peptide where the tryptophan was mutated to alanine]
- Behaviour in fluorescence anisotropy titration with UFM1 (in words) (AtUFM1; 50 nM TAMRA-labeled peptide, up to 320 μM AtUFM1): did not show any change
- Behaviour in fluorescence anisotropy titration with ATG8 (in words) (ATG8A; 50 nM TAMRA-labeled peptide, up to 320 μM ATG8A): did not show any change

Sequence: GPLHDDNEWNISVVDD [UBA5 LIR peptide]
- Complex formation with HsUFM1 by nMS (in words) (HsUFM1): forms a 1:1 complex
- Competition of the HsC53-HsUFM1 interaction (in words) [1]: able to disrupt

Sequence: DVSEISWDVSVET [sAIM3]
- Kd (ATG8A): 176 µM

Sequence: AADSIDWDITVETPEIDWDVSMVEEV [sAIM1,2]
- Kd (AtUFM1): 148 µM

Sequence: EPLDFDWEIVLEEEM [cAIM peptide]
- Complex formation with HsUFM1 by nMS (in words) (HsUFM1): did not appreciably interact; also recorded: negligible amount of 1:1 complex
- Competition of the HsC53-GABARAP interaction (in words) [2]: outcompeted
- Competition of the HsC53-HsUFM1 interaction (in words) [1]: could not outcompete
- Competition of the AtC53-ATG8A interaction (in words) [3]: outcompeted
- Competition of the AtC53-AtUFM1 interaction (in words) [4]: could not outcompete
- Competition of the GABARAP-C53 interaction in pulldown (in words) [5]: outcompeted
- Competition of the HsUFM1-HsC53 interaction in pulldown (in words) [6]: cannot outcompete

Sequence: AADSWDDIITVET [cAIM mut]
- Kd (ATG8A): 94.3 µM
